According to patent US5043343A (priority 1989, dated 1991):
Where a name gives a salt, the structure may show the parent alone.

Experiments:
[1] = biological target: muscarinic receptors (3H-QNB site, cerebral cortex); assay type: binding, Hooded Lister rats; conditions: 0.27nM 3H-QNB, tris buffer pH 7.7, 37° C., 30 min; rat cerebral cortex
[2] = biological target: muscarinic receptors (3H-OXO-M site, cerebral cortex); test: Radio ligand binding: displacement of muscarinic agonist 3H-Oxotremorine-M (3H-OXO-M), rat cerebral cortex membranes; set-up: species or system Hooded Lister rats; conditions: 2 nM 3H-OXO-M, 2mM magnesium chloride, tris buffer pH 7.7, 37° C., 30 min

Nc1noc(C23CCCN(C2)C3)n1 [Example E1, 5-(3-Amino-1,2,4-oxadiazol-5-yl)-1-azabicyclo[3.1.11]heptane]
IC50 [1]: 11000 nM | IC50 [2]: 11 nM

Cc1noc(C23CCCN(C2)C3)n1 [Example E2, 5-(3-Methyl-1,2,4-oxadiazol-5-yl)-1-azabicyclo[3.1.1]heptane oxalate salt]
IC50 [1]: 5000 nM | IC50 [2]: 15 nM

c1ncc(C23CCCN(C2)C3)o1 [Example E3, 5-(1,3-Oxazol-5-yl)-1-azabicyc[3.1.1]heptane oxalate salt]
IC50 [1]: 6250 nM | IC50 [2]: 37 nM

c1coc(C23CCCN(C2)C3)n1 [Example E4, 5-(1,3-Oxazol-2-yl)-1-azabicvclo[3.1.1]heptane oxalate salt]
IC50 [1]: 60000 nM | IC50 [2]: 540 nM

CCc1noc(C23CCCN(C2)C3)n1 [Example E5, 5-(3-Ethyl-1.2.4-oxadiazol-5-yl)-1-azabicyclo[3.1.11]-heptane oxalate salt]
IC50 [1]: 5200 nM | IC50 [2]: 71 nM

CCCc1noc(C23CCCN(C2)C3)n1 [Example E6, 5-(3-Propyl-1,2,4-oxadiazol-5-yl)-1-azabicyclo[3.1.11]heptane oxalate salt]
IC50 [1]: 1700 nM | IC50 [2]: 40 nM

C1CN2CC(c3nc(C4CC4)no3)(C1)C2 [Example E7, 5-(3-Cyclopropyl-1,2,4-oxadiazol-5-yl)-1-azabicyclo-[3.1.1]heptane oxalate salt]
IC50 [1]: 580 nM | IC50 [2]: 62 nM

CCCCc1noc(C23CCCN(C2)C3)n1 [Example E8, 5-(3-Butyl-1,2,4-oxadiazol-5-yl)-1-azabicyclo[3.1.11]heptane oxalate salt]
IC50 [1]: 1950 nM | IC50 [2]: 49 nM

COCc1noc(C23CCCN(C2)C3)n1 [Example E9, 5-(3-Methoxymethyl-1,2,4-oxadiazol-5-yl)-1-azabicyclo-[3.1.11]heptane oxalate salt]
IC50 [1]: 13000 nM | IC50 [2]: 178 nM

CCCCCc1noc(C23CCCN(C2)C3)n1 [Example E10, 5-(3-Pentyl-1,2,4-oxadiazol-5-yl)-1-azabicyclo[3.1.1]heptane oxalate salt]
IC50 [1]: 2400 nM | IC50 [2]: 141 nM

C/C=C/Cc1noc(C23CCCN(C2)C3)n1 [Example E11, E-5-(3-But-2-enyl-1,2,4-oxadiazol-5-yl)-1-azabicyclo-[3.1.11]heptane oxalate salt]
IC50 [1]: 1850 nM | IC50 [2]: 165 nM

Cc1nnc(C23CCCN(C2)C3)o1 [Example E13, 5-(2-Methyl-1,3,4-oxadiazol-5-yl)-1-azabicyclo[3 1.1]heptane oxalate salt]
IC50 [1]: 16500 nM | IC50 [2]: 207 nM

CO/N=C/C12CCCN(C1)C2 [Example E14, oxalate salt]
IC50 [1]: 24000 nM | IC50 [2]: 109 nM

CON=C(C)C12CCCN(C1)C2 [Example E15, E and Z-5-Acetyl-1-azabicyclo[3.1.1]heptane O-methyloxime oxalate salt]
IC50 [1]: 58000 nM | IC50 [2]: 290 nM
